Row | solubility (mole fraction) (in ethanol, 288.15 K) | solubility (mole fraction) (in ethanol, 298.15 K) | solubility (mole fraction) (in ethanol, 308.15 K) | solubility (mole fraction) (in ethanol, 318.15 K) | solubility (mole fraction) (in isopropanol, 288.15 K) | solubility (mole fraction) (in isopropanol, 298.15 K) | solubility (mole fraction) (in isopropanol, 308.15 K) | solubility (mole fraction) (in isopropanol, 318.15 K) | solubility (mole fraction) (in n-propanol, 288.15 K) | solubility (mole fraction) (in n-propanol, 298.15 K) | solubility (mole fraction) (in n-propanol, 308.15 K) | solubility (mole fraction) (in n-propanol, 318.15 K) | Structure (SMILES)
1 | 0.123 | 0.163 | 0.201 | 0.257 | 0.157 | 0.182 | 0.239 | 0.282 | 0.127 | 0.174 | 0.214 | 0.251 | CCOC(=O)c1ccc(O)cc1
2 | 0.287 | 0.361 | 0.433 | 0.524 | 0.293 | 0.339 | 0.415 | 0.512 | 0.289 | 0.352 | 0.448 | 0.522 | CCCCOC(=O)c1ccc(O)cc1
